{
  "source": "patent US20150132788A1",
  "about": "“ESTABLISHING THE VIABILITY OF BIOLOGICAL SAMPLES” (Ovamed GmbH, priority 2012, published 2015)",
  "key": {"[1]": {"conditions": "cited from earlier work"}, "[2]": {"test_system": "sensitive cells (for example, PC12)", "conditions": "cited from earlier work"}, "eggs of Trichuris suis": {"test_system": "eggs of Trichuris suis", "assay": "Dyeing of Trichuris suis eggs (TSO) with ageladine A, fluorescence microscopy with UV excitation", "description": "Embryonated eggs of Trichuris suis (TSO) according to specification of Ovamed GmbH. The nematode eggs are stored in the refrigerator at from 4 to 8° C. in a phosphate buffer at pH 5 with addition of potassium sorbate. For the tests, the TSO were washed several times in 1×DPBS (re-buffering) and adjusted to a concentration of 1000 TSO/ml.\nAgeladine stock solution: 10 mM in MeOH (90%); 1 μl of ageladine was combined with 1000 μl of TSO suspension (see 2.5) in 15 ml tubes. The contents were mixed by gentle shaking and incubated for 10 minutes at ambient temperature in the dark.\nThe ISO were washed three times in DPBS after being dyed with Ageladine A (see 2.6.2). 10 μl of the samples were placed on object carriers with recesses and covered with glass covers. The object carriers were observed under the microscope Leica SP5 MP with and without UV excitation."}, "[3]": {"conditions": "cited from earlier work", "remark": "listed apart in the source"}},
  "data": [
    {"smiles": "Nc1nc2ccnc(-c3cc(Br)c(Br)[nH]3)c2[nH]1", "note": "[ageladine A]", "values": [
      {"measurement": "membrane permeability in the charged (protonated, acidic medium) state", "setting": "[1]; charged state", "value": "membrane-impermeable"},
      {"measurement": "membrane permeability", "setting": "[1]", "value": "high level of membrane-permeability"},
      {"measurement": "membrane permeability in the uncharged (alkaline medium) state", "setting": "[1]; uncharged state", "value": "very rapidly crosses many cell membranes"},
      {"measurement": "toxicity", "setting": "[2]; sensitive cells (for example, PC12), long incubation", "value": "not toxic"},
      {"measurement": "cell toxicity after a long incubation time", "setting": "[2]; whipworm eggs, long incubation time", "value": "not cell-toxic"},
      {"measurement": "absorption of the dye by eggs of the whipworm", "setting": "eggs of Trichuris suis; eggs normally absorb dyes very poorly", "value": "very rapid"},
      {"measurement": "proportion of TSO exhibiting fluorescence after incubation with ageladine A", "setting": "eggs of Trichuris suis; excitation 370 nm, detection 410-480 nm, 10 minutes incubation at ambient temperature", "value": "a small percentage"},
      {"measurement": "correlation between eggs marked as defective by morphological criteria and fluorescing eggs", "setting": "eggs of Trichuris suis; optical blind test, fourteen TSO, UV excitation", "value": "high level of correlation"},
      {"measurement": "fluorescence in degenerated eggs of Trichuris suis", "setting": "eggs of Trichuris suis; ultraviolet excitation, multi-photon microscopy", "value": "fluoresces"},
      {"measurement": "pH of greatest fluorescence", "setting": "[3]; fluorescence decreases as the pH value increases", "value": "~4", "unit": "pH"},
      {"measurement": "stability of the dyeing", "setting": "[3]; intensive dyes in cells, tissues, organisms", "value": "stable over hours and days"},
      {"measurement": "tendency to fade", "setting": "[3]; relatively long incubation times", "value": "scarcely has any tendency to fade"}
    ]}
  ]
}
